The record followed here is article PMC4157788, “A Small Library of Synthetic Di-Substituted 1, 4-Naphthoquinones Induces ROS-Mediated Cell Death in Murine Fibroblasts” (PLoS ONE, 2014).

Like-named read-outs stand apart in the source and are kept apart here. A value given as a limit tells only on which side of the number the result lay.

Test [1] deals with murine fibroblast cell line (L929). The experiment in a line: MTT viability assay. To be noted: L929 cells; for Toxicity group: 48 hrs, MTT, Group I no difference from DMSO, Group II dose-responsive inhibition, Group III >50% inhibition at the lowest concentration; for IC50: Mus musculus, read-out: IC50 (concentration of compound that induces 50% inhibition of survival); for IC50 / IC50 (concentration of compound that induces 50% inhibition of survival): MTT assay, 48 hrs incubation, doubling dilutions. Format: cell-based. As for the experimental part:
The MTT (3-(4, 5-dimethylthiazol-2-yl)-2, 5-diphenyl tetrazolium bromide) viability assays were carried out as per manufacturers' instructions (Sigma). The L929 cells were plated at 50,000 cells per well in a 96-well flat-bottom plate (Becton-Dickinson Labware, Franklin Lakes, NJ). The cells were cultured with decreasing concentrations of the compounds (in duplicate), beginning at 0.50 mg/ml and decreasing by half over eleven additional dilutions. As controls, cells remained untreated (media alone) or were treated with equivalent dilutions of dimethylsulfoxide (DMSO, vehicle control) (Sigma). Following a 48 h incubation, the MTT reagent was added at 10% of the total volume per well. Following a 4 h incubation, the formed crystals were solubilized by removing approximately ¾ of the supernatant and adding 50 µl of solvent (10% Triton × and 1% 12 N HCl in isopropanol) (Sigma). All wells were vigorously pipetted (without forming bubbles) to help dissolve the crystals. The plates were then read in a 96-well plate spectrophotometer at 570 nm.
In general terms: Formazan colour is commonly taken as a measure of viable cells.

Test [2] relates to L929 cells. Put plainly: Light microscopy of compound-treated cells (morphology). The format is cell-based, murine. To be noted: 24 hr, compound at IC50 (H2O2 600 µM), light microscopy 40X. As for the experimental part:
The cells were cultured for 24 h at 37°C, 5% CO2. […] Digital images were captured using the AxioCam HR digital camera and were processed with Axiovision Software, Version 4.1.

The subject of test [3] is L929 cells. The experiment in a line: Flow cytometry assessment of apoptosis (Annexin V-FITC / propidium iodide). The following applies: 48 hrs, IC50 (lowest concentration tested for highly cytotoxic compounds), versus medium alone. The format is cell-based, murine. As for the experimental part: The cells were then washed in FACS buffer (phosphate buffered saline +2% fetal bovine serum), resuspended in 50 µl of buffer and then incubated with 30% normal mouse serum (Sigma) to prevent non-specific staining, for 15 min. at room temperature. The cells were then treated with 5 µl of FITC-conjugated annexin V (1 mg/ml stock) and 2 µl of propidium iodide (5 mg/ml stock). The cells were then mixed gently and incubated at room temperature for 15 minutes in the dark followed by an analysis by flow cytometry within the hour.
(In general: A flow cytometer gives signals particle by particle.)

Another test deals with caspase 3 in L929 cells. Put plainly: Detection of active caspase-3 (colorimetric DEVD-pNA assay). To be noted: 24 h treatment. Format: cell-based, murine. The procedure: The assay was performed as per the manufacturers' instructions (BioSource International, Camarillo, CA). The L929 cells were plated at 3×10^6 cells per well in 6-well plates. The cells were then treated with the indicated compounds for 24 h. After treatment with the compounds, the cells were centrifuged, washed twice with 1× PBS, were re-suspended in 50 µL of chilled Cell Lysis Buffer and were incubated for 10 min. on ice. The samples were then centrifuged and the cytosolic extracts were then transferred to 96-well flat-bottom plates. Reaction buffer (5 µL of 1.0 M DTT to 500 µL of 2× Reaction buffer), made just prior to use, and was added to each well. DEVD-pNA substrate (5 µL) was then added to each well and the samples were incubated in the dark for an additional 2 h. The plates were then read on a spectrophotometer at a wavelength of 405 nm.

The test system of test [4] is L929 cells. Put plainly: Detection of reactive oxygen species (ROS) by DHCF-DA. The format is cell-based, murine. The following applies: compound at IC50, 24 hrs, fluorometric assay. The procedure:
Cells were plated at 50,000 cells per well in 96-well plates, protected or unprotected by 10 µM ascorbic acid. Following a 4 h incubation period, the cells were then treated with the indicated compounds at the IC50 or with H2O2 as a positive control. Twenty-four hours later, the plates were centrifuged and the supernatants were collected. The adherent cells were treated with 20 µL of 0.25% trypsin (Invitrogen) for 2 min. The cells were then removed and transferred to black-walled 96-well plates to prevent bleeding of fluorescence between sample wells. Dichlorofluorescein-Diacetate (10 µM) (Invitrogen - Molecular Probes), was then added to each well. The plates were then immediately read on a fluorescent plate reader using excitation wavelength of 485 nm and emission wavelength of 538 nm. Fluorescence was determined every 10 min over a 320 min. period.

Test [5] has as its system L929 cells. Put plainly: Catalase and superoxide dismutase (SOD) protection assay (MTT viability). The format is cell-based, murine. To be noted: 48 hr; for Protection of compound-treated cells by SOD (viability): compound at IC50, SOD 0.5 mg/ml; for Protection of compound-treated cells by combination of catalase and SOD (viability): compound at IC50, catalase 1 mg/ml + SOD 0.5 mg/ml; for Protection of compound-treated cells by catalase (viability): compound at IC50, catalase 1 mg/ml. As for the experimental part: L929 cells were plated at 50,000 cells/well in a 96-well flat-bottom plate. Catalase (1 mg/ml), SOD (0.5 mg/ml), or combinations of the two were added to the cells. The cells were also treated with the indicated compounds at a concentration that inhibited 50% of cellular viability or with media or DMSO as controls. Following a 48 h incubation period, cellular viability was assessed as described above (MTT assay).

For test [6], the system named is L929 cells. The experiment in a line: Ascorbic acid protection assay (MTT viability). The format is cell-based, murine. The following applies: L929 cells pre-loaded for 4 h with 10 µM ascorbic acid, compound at IC50, 48 hrs. As for the experimental part: […] The cells were then thoroughly washed with Hank's Balanced Salt Solution (HBSS (Invitrogen) and the MTT viability assay was conducted as described above.

For test [7], the system named is L929 cells. The experiment in a line: Detection of mitochondrial membrane depolarization (DePsipher, flow cytometry). Format: cell-based, murine. To be noted: compound at IC50, DePsipher. As for the experimental part: L929 cells (5×10^4 cells/well) were cultured in 12-well plates for 48 h in the presence of medium, DMSO, camptothecin (4 µM, positive control) or compound (IC50). The cells were then washed in FACS buffer resuspended in 100 µl of buffer. DePsipher (5, 5′6, 6′-tetrachloro-1, 1′, 3, 3′-tetraethylbenzimidazolylcarbocyanine iodide) (5 µl per sample) (Trevigen, Inc., Gaithersburg, MD) was then added. The cells were incubated at room temp., in the dark for a minimum of 15 min. The cells were assayed within the hour by flow cytometry. 10,000 events per sample were collected and analyzed by EXPO32 software.

In the case of `O=C1C(c2ccccc2)=C(c2ccccc2)C(=O)c2ccccc21` [Compound 2, 2,3-diphenyl-1,4-napthoquinone], in test [1], the Toxicity group entry is given as “Group II Intermediate toxicity” and the IC50 was 30 µg/mL. Besides, the IC50 in test [1] (same value converted to µM) was 96.7 µM. In the test on L929 cells [2], the “Effect on cellular morphology” value was “detrimental to cell survival”. Further, the “Externalization of phosphatidylserine (Annexin V staining)” value (from here on “Externalization of phosphatidylserine”) in the test on L929 cells [3] is “promoted externalization of PS significantly above that induced by medium alone”. Also, the “Activation of caspase 3” value with caspase 3 in L929 cells was “activated caspase 3 equivalently”. For the same compound, the “Formation of intracellular reactive oxygen species (ROS)” value (“Formation” below) with L929 cells [4] is “induced levels of ROS equal to that induced by H2O2”. Further, in the test on L929 cells [5], the “Protection of compound-treated cells by SOD (viability)” value is listed as “did not protect”; the “Protection of compound-treated cells by combination of catalase and SOD (viability)” value is on record as “did not protect the cells against compound 2 beyond that provided by catalase alone”; the “Protection of compound-treated cells by catalase (viability)” value is listed as “partially protected”. In the test with L929 cells [6], the “Protection of compound-treated cells by ascorbic acid pre-treatment (viability)” value is “partially protected from cell death”.
Turning to `CC1=C(C)C(=O)c2ccccc2C1=O` [Compound 3, 2,3-dimethyl-1,4-napthoquinone], the figures for the IC50 in test [1] and in test [1] (same value converted to µM) were 8 µg/mL and 42.9 µM, respectively. Besides, the “Externalization of phosphatidylserine” value in the test on L929 cells [3] was “promoted externalization of PS significantly above that induced by medium alone”.
The like results for `CC(C)=CCC1=C(O)C(=O)c2ccccc2C1=O` [Compound 4, 2-hydroxy-3-(3-methyl-2 butenil)-1, 4 naphthoquinone] were, in that order, 15 µg/mL, 62 µM and “promoted externalization of PS significantly above that induced by medium alone”.
In the case of `CC1=CC(=O)c2c(O)cccc2C1=O` [Compound 5, 2-methyl-5-hydroxy-1,4-napthoquinone, reference compound], in test [1], the Toxicity group entry was “Group III High toxicity” and the IC50 was less than 1 µg/mL. Also, in test [1] (same value converted to µM), the IC50 is less than 5.3 µM. The “Effect on cellular morphology” value in the test on L929 cells [2] is listed as “detrimental to cell survival”. Further, the “Externalization of phosphatidylserine” value in the test with L929 cells [3] is reported as “promoted externalization of PS significantly above that induced by medium alone”. Besides, the “Activation of caspase 3” value in the test on caspase 3 in L929 cells is “activated caspase 3 equivalently”. Besides, the “Change in mitochondrial membrane potential (depolarization)” value with L929 cells [7] is “does not activate mitochondrial depolarization”. For the same compound, the “Formation” value with L929 cells [4] is “induced levels of ROS equal to that induced by H2O2”. Also, in the test on L929 cells [5], the “Protection of compound-treated cells by SOD (viability)” value is recorded as “did not protect”; the “Protection of compound-treated cells by combination of catalase and SOD (viability)” value is given as “did not protect”; the “Protection of compound-treated cells by catalase (viability)” value is given as “did not protect”. Moreover, the “Protection of compound-treated cells by ascorbic acid pre-treatment (viability)” value in the test on L929 cells [6] is “partially protected from cell death”.
Turning to `O=C1C=CC(=O)c2ccccc21` [Compound 6, 1,4-napthoquinone], the figures for the IC50 in test [1] and in test [1] (same value converted to µM) were less than 1 µg/mL and less than 6.3 µM, respectively. Moreover, the “Externalization of phosphatidylserine” value in the test with L929 cells [3] is given as “promoted externalization of PS significantly above that induced by medium alone”. Also, the “Activation of caspase 3” value in the test with caspase 3 in L929 cells was “activated caspase 3 equivalently”.
For `O=C1C=CC(=O)c2c(O)cccc21` [Compound 7, 5-hydroxy-1,4-napthoquinone, reference compound], the IC50 in test [1] is less than 1 µg/mL; in test [1] (same value converted to µM), less than 5.7 µM. In the test with L929 cells [3], the “Externalization of phosphatidylserine” value is “promoted externalization of PS significantly above that induced by medium alone”.
`N#CC1=C(C#N)C(=O)C(Cl)=C(Cl)C1=O` [Compound 8, 2,3-dichloro-5,6-dicyano-1,4-benzoquinone]: in test [1], the Toxicity group result is “Group I No toxicity” and the “IC50 (concentration of compound that induces 50% inhibition of survival)” value is listed as “No inhibition”.
For `CC1=C(C/C=C(\C)CCC[C@H](C)CCC[C@H](C)CCCC(C)C)C(=O)c2ccccc2C1=O` [Compound 9, 2-methyl-3-phytyl-1,4-naphthoquinone, reference compound], in test [1], the “IC50 (concentration of compound that induces 50% inhibition of survival)” value was “No inhibition”. Also, the “Effect on cellular morphology” value in the test with L929 cells [2] is “no effect on the cells”. Further, the “Externalization of phosphatidylserine” value in the test on L929 cells [3] was “promoted externalization of PS significantly above that induced by medium alone”. Moreover, the “Formation” value in the test on L929 cells [4] is “induced ROS equal to that generated in non-treated cells”.
Turning to `O=C1c2ccccc2C(=O)C2OC12` (stereo not drawn) [Compound 10, 1,4-napthoquinone epoxide], the IC50 in test [1] worked out at 4 µg/mL; in test [1] (same value converted to µM), 23 µM.
On to `CCCC1=CC(=O)c2ccccc2C1=O` [Compound 11, 2-propyl-1,4-napthoquinone], for which, in test [1], the Toxicity group entry is “Group II Low toxicity” and the IC50 stood at 60 µg/mL. Besides, the IC50 in test [1] (same value converted to µM) stood at 300 µM. Also, the “Externalization of phosphatidylserine” value in the test with L929 cells [3] is recorded as “promoted externalization of PS significantly above that induced by medium alone”.
Turning to `CCC1=C(C)C(=O)c2ccccc2C1=O` [Compound 12, 2-ethyl-3-methyl-1,4-napthoquinone], the IC50 in test [1] was 30 µg/mL; in test [1] (same value converted to µM), 150 µM.
As to `OO` [Compound H2O2, hydrogen peroxide], the “Effect on cellular morphology” value with L929 cells [2] is “rounded, granular, and vesiculated”.
